Measurements published in publication PMC9804871, “Effect of Opicapone on Levodopa Pharmacokinetics in Patients with Fluctuating Parkinson's Disease” (Movement Disorders, 2022).
Marks after values point to notes of the source that are not given here.

Legend:
[1] = system: patients with PD and end-of-dose motor fluctuations; test: 24-hour patient Hauser on/off diary; type: in vivo, human (patients with PD); conditions: for ON-time With Non-Troublesome Dyskinesia / ON-time With Troublesome Dyskinesia / ON-time Without Dyskinesia / Total OFF-time / Total ON-time: 24-hour Hauser diary, mean (SD); for 24-h total off time, geometric mean (90% CI) / 24-h total on time, geometric mean (90% CI): N 12
Protocol: Clinical and safety/tolerability outcomes were also assessed as exploratory secondary outcomes. Clinical outcomes included on and off time assessed using patient‐rated tools. The timing of on and off states was registered (in real time) by the investigators during the matching 12‐hour pharmacokinetic evaluation (as such applied on pharmacokinetics days only), and patients also completed 24‐hour patient Hauser on/off diary charts[21] (in 30‐minute blocks) during the 3 days before each pharmacokinetic visit. Diary states of interest were off time and on time, including on without dyskinesia, on with nontroublesome dyskinesia, and on with troublesome dyskinesia. In addition, the Patient Global Impression of Change (PGI‐C) of opicapone 50 mg was evaluated at the end of the LD/CD 400/100 mg plus opicapone treatment compared with before the start of opicapone treatment.[22] Safety and tolerability endpoints included treatment‐emergent adverse events (TEAEs), serious TEAEs, and TEAEs leading to discontinuation.
Clinical outcomes are also presented descriptively. A paired t test was used for the comparison of 12‐hour off and on time, 24‐hour off and on time, time to on, and time to best on between each opicapone‐containing regimen and the regimen without opicapone. Estimates of mean difference and corresponding 90% CIs were reported for all main variables.

[2] = 12-hour levodopa plasma pharmacokinetics; type: in vivo, human (patients with PD); conditions: for Levodopa AUCτ / Levodopa Cavg / Levodopa Cmax / Levodopa Cmin: mean; for Levodopa tmax: median; for Levodopa Cmax (over all intakes of the 12-hour pharmacokinetics; Cmax,max) / Levodopa Cmin (over all intakes, excluding first predose; Cmin,min): mean (%CV); for Levodopa Cmin,min, geometric mean (90% CI): N 11; for Levodopa Cmax,max, geometric mean (90% CI): N 12
Protocol: The study design is illustrated in Figure 1.
Pharmacokinetic evaluation occurred over 12 hours with sampling every 30 minutes, except for the last sample following each LD dose in the opicapone plus four LD intake regimen, which was sampled at 1 hour. The main pharmacokinetics parameters assessed included maximum observed plasma concentration (Cmax), time to achieve peak plasma levels (tmax), minimum observed plasma concentration (Cmin), plasma elimination half‐life (t1/2), area under the curve (AUC), and fluctuation index (FI; as an expression of peak‐to‐trough fluctuation, Cmax, and Cmin, relative to average concentration [Cavg]). The pharmacokinetics of the LD metabolite 3‐O‐methyldopa (3‐OMD) was also evaluated.
Descriptive statistics were used to summarize the pharmacokinetics parameters for LD and 3‐OMD for each of the three regimens. […] No formal comparison was performed between opicapone regimens.

[3] = 5-intake LD/CD 500/125mg vs 4-intake LD/CD 400/100mg plus OPC 50mg
[4] = 5-intake LD/CD 500/125mg vs 5-intake LD/CD 400/100mg plus OPC 50mg
[5] = five-intake levodopa/carbidopa 500/125 mg vs five-intake levodopa/carbidopa 400/100 mg plus opicapone 50 mg
[6] = five-intake levodopa/carbidopa 500/125 mg vs four-intake levodopa/carbidopa 400/100 mg plus opicapone 50 mg
[7] = five-intake LD/CD 500/125 mg vs five-intake LD/CD 400/100 mg plus opicapone 50 mg, first LD/CD intake
[8] = five-intake LD/CD 500/125 mg vs five-intake LD/CD 400/100 mg plus opicapone 50 mg, fourth LD/CD intake
[9] = five-intake LD/CD 500/125 mg vs five-intake LD/CD 400/100 mg plus opicapone 50 mg
[10] = five-intake LD/CD 500/125 mg vs five-intake LD/CD 400/100 mg plus opicapone 50 mg, second LD/CD intake
[11] = five-intake LD/CD 500/125 mg vs five-intake LD/CD 400/100 mg plus opicapone 50 mg, third LD/CD intake
[12] = five-intake LD/CD 500/125 mg vs four-intake LD/CD 400/100 mg plus opicapone 50 mg, first LD/CD intake
[13] = five-intake LD/CD 500/125 mg vs four-intake LD/CD 400/100 mg plus opicapone 50 mg, fourth LD/CD intake
[14] = five-intake LD/CD 500/125 mg vs four-intake LD/CD 400/100 mg plus opicapone 50 mg
[15] = five-intake LD/CD 500/125 mg vs four-intake LD/CD 400/100 mg plus opicapone 50 mg, second LD/CD intake
[16] = five-intake LD/CD 500/125 mg vs four-intake LD/CD 400/100 mg plus opicapone 50 mg, third LD/CD intake

Substance: levodopa/carbidopa [LD/CD]
- ON-time With Non-Troublesome Dyskinesia [1, 3]: 86.7 (72.6) min
- ON-time With Troublesome Dyskinesia [1, 3]: 35.0 (26.5) min
- ON-time Without Dyskinesia [1, 3]: 411.7 (122.6) min
- Total OFF-time [1, 3]: 442.50 (96.3) min
- Total ON-time [1, 3]: 488.3 (110.9) min
- ON-time With Non-Troublesome Dyskinesia [1, 4]: 66.4 (48.0) min
- ON-time With Troublesome Dyskinesia [1, 4]: 20.0 (24.49) min
- ON-time Without Dyskinesia [1, 4]: 446.7 (110.0) min
- Total OFF-time [1, 4]: 431.70 (100.3) min
- Total ON-time [1, 4]: 519.2 (91.2) min
- 24-h total off time, geometric mean (90% CI) [1, 5]: 420.3 (369.8, 477.6) min
- 24-h total on time, geometric mean (90% CI) [1, 5]: 512.5 (470.9, 557.9) min
- 24-h total off time, geometric mean (90% CI) [1, 6]: 433.0 (386.4, 485.0) min
- 24-h total on time, geometric mean (90% CI) [1, 6]: 476.5 (421.9, 538.2) min
- Levodopa AUCτ [2, 7]: 1788^b h · ng/mL
- Levodopa Cavg [2, 7]: 596^b ng/mL
- Levodopa Cmax [2, 7]: 1356 ng/mL
- Levodopa Cmin [2, 7]: 18.1 ng/mL
- Levodopa tmax [2, 7]: 0.5 h
- Levodopa AUCτ [2, 8]: 2871^d h · ng/mL
- Levodopa Cavg [2, 8]: 957^d ng/mL
- Levodopa Cmax [2, 8]: 1540 ng/mL
- Levodopa Cmin [2, 8]: 455 ng/mL
- Levodopa tmax [2, 8]: 1.5 h
- Levodopa Cmax (over all intakes of the 12-hour pharmacokinetics; Cmax,max) [2, 9]: 1999 (26.3) ng/mL
- Levodopa Cmin (over all intakes, excluding first predose; Cmin,min) [2, 9]: 267.0 (82.9) ng/mL
- Levodopa AUCτ [2, 10]: 2269^b h · ng/mL
- Levodopa Cavg [2, 10]: 756^b ng/mL
- Levodopa Cmax [2, 10]: 1466 ng/mL
- Levodopa Cmin [2, 10]: 283 ng/mL
- Levodopa tmax [2, 10]: 1.0 h
- Levodopa AUCτ [2, 11]: 2871^d h · ng/mL
- Levodopa Cavg [2, 11]: 957^d ng/mL
- Levodopa Cmax [2, 11]: 1530 ng/mL
- Levodopa Cmin [2, 11]: 365 ng/mL
- Levodopa tmax [2, 11]: 0.5 h
- Levodopa AUCτ [2, 12]: 2076 ng·h/mL
- Levodopa Cavg [2, 12]: 692 ng/mL
- Levodopa Cmax [2, 12]: 1393 ng/mL
- Levodopa Cmin [2, 12]: 18.6 ng/mL
- Levodopa tmax [2, 12]: 0.75 h
- Levodopa AUCτ [2, 13]: 3414^d h · ng/mL
- Levodopa Cavg [2, 13]: 1138^d ng/mL
- Levodopa Cmax [2, 13]: 1852 ng/mL
- Levodopa Cmin [2, 13]: 559 ng/mL
- Levodopa tmax [2, 13]: 1.5 h
- Levodopa Cmax (over all intakes of the 12-hour pharmacokinetics; Cmax,max) [2, 14]: 2130 (25.8) ng/mL
- Levodopa Cmin (over all intakes, excluding first predose; Cmin,min) [2, 14]: 264.5 (32.8) ng/mL
- Levodopa AUCτ [2, 15]: 2637^c h · ng/mL
- Levodopa Cavg [2, 15]: 879^c ng/mL
- Levodopa Cmax [2, 15]: 1751 ng/mL
- Levodopa Cmin [2, 15]: 266 ng/mL
- Levodopa tmax [2, 15]: 1.5 h
- Levodopa AUCτ [2, 16]: 2850^f h · ng/mL
- Levodopa Cavg [2, 16]: 950^f ng/mL
- Levodopa Cmax [2, 16]: 1310 ng/mL
- Levodopa Cmin [2, 16]: 403 ng/mL
- Levodopa tmax [2, 16]: 1.5 h
- Levodopa Cmin,min, geometric mean (90% CI) [2, 5]: 218.9 (156.1, 307.0) ng/mL
- Levodopa Cmax,max, geometric mean (90% CI) [2, 5]: 1931 (1667, 2237) ng/mL
- Levodopa Cmin,min, geometric mean (90% CI) [2, 6]: 252.2 (211.4, 301.0) ng/mL
- Levodopa Cmax,max, geometric mean (90% CI) [2, 6]: 2059 (1782, 2380) ng/mL
